Assay [1] addresses T1, TC-PTP (Homo sapiens, UniProt P17706).
T1 sequence (P17706 1-415): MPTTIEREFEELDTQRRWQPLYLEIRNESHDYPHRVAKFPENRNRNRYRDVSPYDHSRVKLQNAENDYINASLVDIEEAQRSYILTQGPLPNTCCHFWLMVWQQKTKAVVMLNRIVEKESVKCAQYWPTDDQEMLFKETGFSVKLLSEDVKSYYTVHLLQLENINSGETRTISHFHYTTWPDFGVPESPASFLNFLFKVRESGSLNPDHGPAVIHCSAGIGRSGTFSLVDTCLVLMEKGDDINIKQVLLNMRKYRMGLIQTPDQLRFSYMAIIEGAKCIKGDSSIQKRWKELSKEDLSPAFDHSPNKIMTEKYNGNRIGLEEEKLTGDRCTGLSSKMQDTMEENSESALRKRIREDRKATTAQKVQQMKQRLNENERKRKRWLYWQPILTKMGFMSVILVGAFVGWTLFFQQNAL
Description: Degradation assay in HEK293 cells (immunoblotting). It is filed as cell-based. On the set-up: Degradation assay was conducted in HEK293 cells with 1 μM degrader and 24 hours incubation; endogenous in cells; host or cells: HEK293. The settings on record: 16 hours, dose response. Background: Immunoblotting shows a protein as a band on a membrane.

For assay [2], the system named is PTP1B and TC-PTP. Description: Immunofluorescence of PTP1B and TC-PTP in U2OS cells. It is filed as cell-based. The conditions noted are these: 1 μM, 3 hours and 24 hours. The method, then:
MG132 (20 μM) was used along with compound 47 to block PTP1B and TC-PTP degradation.

A further assay deals with MC38 cells. Description: MHC-I expression in MC38 cells by flow cytometry. Type of assay: cell-based. The settings on record: 500 nM 16 hours, then mouse IFN-γ 48 hours. The protocol: Mouse MHC-I complex was stained with mouse H2K(b)/H2D(b) antibody and measured by flow cytometry.
After incubation, MC38 cells were trypsinized and washed in PBS+2% FBS, stained with Alexa Fluor® 647 anti-mouse H-2Kb/H-2Db Antibody against mouse MHC-I complex and then analyzed on a BD Fortessa LSR flow cytometry cell analyzer.
On the technique in general: In flow cytometry, cells or beads pass a laser one at a time.

Assay [3] deals with PTP1B and TC-PTP. Put plainly: PTP1B/TC-PTP degradation and pJAK1/2 elevation in MEF cells. Type of assay: cell-based, mouse. The conditions noted are these: 500 nM, 16 hours. The method, then: Deletion of TC-PTP or PTP1B abolished the compound 47-induced phosphorylation of the TC-PTP substrate JAK1 or the PTP1B substrate JAK2. Thus, compound 47 efficiently amplifies cellular […] signaling by degrading PTP1B and TC-PTP. U2OS cells were treated with DMSO or 0.2 μM compound 47 for 16 hours and stimulated with 20 ng/ml IFN-γ for 30 minutes. […] DAPI was used to stain the cell nucleus.
The target engagement by compound 47 inside the cell was ascertained. As negative regulators of IFN-γ signaling, PTP1B and TC-PTP dephosphorylate JAK2 at Y1007/Y1008 and JAK1 at Y1034/Y1035, respectively. In addition, TC-PTP can also directly dephosphorylate STAT family members, including STAT1 and STAT3, in the nucleus to comprehensively attenuate IFN signaling. […] In contrast, the addition of compound 47 to PTP1B^−/− MEF cells further increased the IFN-γ mediated TC-PTP substrate pJAK1/Y1034/Y1035 level with no alteration of PTP1B substrate JAK2/Y1007/Y1008 phosphorylation.

In a further assay the test system is HEK293 cells. Description: Proteomic analysis for degradation selectivity in HEK293 cells. It is filed as cell-based. The settings on record: 100 nM, 4 hours. The protocol:
The proteome-wide degradation selectivity of compound 47 was assessed by performing quantitative mass spectrometry-based proteomic experiments to determine the range of targets degraded by compound 47 in HEK293 cells.

In assay [4] the target is T1, TC-PTP. Description: PTP activity assay with pNPP substrate (IC50, Ki, mode of inhibition). It is filed as biochemical. The conditions noted are these: pNPP 2 mM, pH 7.0, 25° C.; read-out: IC50, nM TC-PTP. The essentials: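 Hydrolysis of pNPP measured spectrophotometrically in pH 7.0 DMG buffer (EDTA, NaCl, DTT, BSA) at 25 °C, 0.4 nM enzyme. IC50 at 2 mM pNPP (Km) over an inhibitor titration; mode of inhibition and Ki from rates across varied pNPP and inhibitor levels, fitted to enzyme kinetic models.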

Assay [5] has as its system PTP1B and TC-PTP. Description: Western blot quantification of PTP1B/TC-PTP and pSTAT1 in multiple cell lines. It is filed as cell-based. The protocol: The GAPDH protein was used as the loading control. Compound 47 induces PTP1B and TC-PTP degradation in all tested cell lines with low nanomolar DC50s.
The GAPDH protein was used as the loading control. […] The changes in pSTAT1 level were positively correlated with TC-PTP/PTP1B degradation among all cell lines.
Tissues or cultured cells were lysed with ice-cold lysis buffer (50 mM Tris (pH 8.0, 150 mM NaCl, 10% Glycerol, 1% Triton-X-100) supplied with phosphatase inhibitor (Bimake) and protease inhibitor mixture (Roche Applied Science). Equal amounts of protein were resolved by SDS-PAGE, transferred to nitrocellulose membrane, and subjected to immunoblotting. Antibodies used in this study include anti-following proteins: pSTAT1^Tyr701 (Cell Signaling Technology #9167, 1:3000), GAPDH (Cell Signaling Technology #97166, 1:5000), pJAK1^Tyr1034/1035 (Cell Signaling Technology #74129, 1:1000), pJAK2^Tyr1007/1008 (Cell Signaling Technology #3776, 1:1000), TC-PTP (Abcam #ab180764, 1:3000). PTP1B (Abcam #ab244207, 1:1500).

Each structure is given as a SMILES string. *1 amine or outer side, *2 acyl side, *3 side chain or, on linkers, in order; H or OH if unused. Where a SMILES comes first, the peptide text is derived from it. [ ]: non-standard residue; d: D form. The star is where a group is joined. NHCH2(1,3-C6H4)CH2CO = O=C(Cc1cccc(CN[*:1])c1)[*:2]; F2Pmp = N[C@@H](Cc1ccc(C(F)(F)P(=O)(O)O)cc1)C(=O)O; Phenylacetyl(4-OH,3-OMe) = COc1cc(CC(=O)*)ccc1O; Benzoyl(3-Br,4-Me) = Cc1ccc(C(=O)*)cc1Br; X1 = Cc1ncsc1-c1ccc([C@H](C)N*)cc1; Hyp = O=C(O)[C@@H]1C[C@@H](O)CN1; Tle = CC(C)(C)[C@H](N)C(=O)O

By IC50 is commonly meant the concentration needed to halve the response being measured.

On to `COc1cc(CC(=O)N[C@@H](Cc2ccccc2)C(=O)N[C@@H](Cc2ccc(C(F)(F)P(=O)(O)O)cc2)C(=O)N[C@@H](CCCCNC(=O)c2ccc(C)c(Br)c2)C(=O)NCc2cccc(CC(=O)N[C@H](C(=O)N3C[C@H](O)C[C@H]3C(=O)N[C@@H](C)c3ccc(-c4scnc4C)cc3)C(C)(C)C)c2)ccc1O` [Compound 47, ((4-((S)-3-(((S)-6-(3-bromo-4-methylbenzamido)-1-((3-(2-(((S)-1-((2S,4R)-4-hydroxy-2-(((S)-1-(4-(4-methylthiazol-5-yl)phenyl)ethyl)carbamoyl)pyrrolidin-1-yl)-3,3-dimethyl-1-oxobutan-2-yl)amino)-2-oxoethyl)benzyl)amino)-1-oxohexan-2-yl)amino)-2-((S)-2-(2-(4-hydroxy-3-methoxyphenyl)acetamido)-3-phenylpropanamido)-3-oxopropyl)phenyl)difluoromethyl)phosphonic Acid] ({Phenylacetyl(4-OH,3-OMe)}-F[F2Pmp]K(Benzoyl(3-Br,4-Me))[NHCH2(1,3-C6H4)CH2CO][Tle][Hyp]-X1), for which, on TC-PTP [1], the TC-PTP degradation entry was “dose-dependently induced degradation of TC-PTP”. Further, the “PTP1B and TC-PTP degradation by immunofluorescence” value in the assay on PTP1B and TC-PTP [2] is “degraded cytoplasm-localized PTP1B and both nucleus- and cytoplasm-localized TC-PTP”. For the same molecule, the MHC-I expression result in the assay on MC38 cells is “elevated expression of MHC-I”. Moreover, in the assay on PTP1B and TC-PTP [3], the “IFN-γ stimulated JAK2 and JAK1 phosphorylation” value is given as “augmented”; the “PTP1B and TC-PTP removal” value is on record as “complete removal”. In the assay with HEK293 cells, the proteome-wide degradation selectivity result is “PTP1B was the only protein whose levels were significantly reduced”. On TC-PTP [4], the half-inhibitory concentration (IC50) came to 30.1 ± 2.3 nM. Besides, the “DC50 of PTP1B and TC-PTP degradation” value in the assay with PTP1B and TC-PTP [5] (all tested cell lines, 16 hours) is on record as “low nanomolar”. Further, the pSTAT1 level entry in the assay on PTP1B and TC-PTP [5] (multiple cell lines, 10 ng/ml IFN-γ 15 mins) is reported as “enhances pSTAT1 level in all cell lines”.

Values taken from patent publication US20260240878A1, “PTP1B/TC-PTP DUAL INHIBITORS AND PROTEIN DEGRADERS” (Purdue Research Foundation, priority 2023, published 2026).
